Reference: patent US20100120762A1, “Triazine derivatives as inhibitors of phosphodiesterases” (WYETH, priority 2008, published 2010)
Where two headings read alike, the source gives them in different places.

Tests used:
PDE2A (NM002599) = molecular target: T1, PDE2A (NM002599) (Homo sapiens, UniProt O00408); assay: Inhibition of recombinant PDE2A (expressed in baculovirus/SF21-cells); assay type: biochemical
T1 construct: made in house; host or cells: baculovirus / SF21 insect cells
Procedure: PDE2A (NM002599) was cloned and the gene was inserted in the baculovirus and the enzyme-protein expressed in SF21-cells. The enzyme was isolated from these cells by harvesting the cells by an centrifugation at 200 g to collect the cells. The cells were resuspended in 50 mM Tris-HCl/5 mM MgCl2 buffer (pH=7.4) (Sigma, Deisenhofen, Germany; Merck, Darmstadt, Germany) and lysed by a sonication of the cells (three times for 15 seconds, Labsonic U, Fa. Braun, Degersheim, Switzerland, level “high”). The membrane fraction of PDE2A was obtained by a centrifugation at 48 000 g for 1 h, resuspended in buffer and stored at −70° C.
PDE2A activity was determined in a one step procedure in microtiterplates. The reaction mixture of 100 μl contained 50 mM Tris-HCl/5 mM MgCl2 buffer (pH=7.4) (Sigma, Deisenhofen, Germany; Merck, Darmstadt, Germany), 0.5 μM [3H]-cAMP (Amersham, Buckinghamshire, UK), 1000 nM cGMP and the enzyme. Non-specific enzyme activity was tested in the absence of cGMP. The reaction was initiated by addition of the substrate solution and was carried out at 37° C. for 30 minutes. Enzymatic activity then was stopped by addition of 25 μl SPA-beads (Amersham-Pharmacia). One hour later the mixture was measured in a liquid scintillation counter for microtiterplates (Microbeta Trilux). For pipetting of the incubation mixture the robot Biomek (Fa. Beckman) was routinely used.
The optimal amount of enzyme in the assay has been determined and optimised for each enzyme preparation separately before using the enzyme in compound testing. For determination of IC50 values the Hill-plot, 2-parameter-model, was used.

PDE10A1 (AB 020593) = molecular target: T2, PDE10A1 (AB 020593) (Homo sapiens, UniProt Q9Y233); assay: Inhibition of recombinant PDE10A (baculovirus/SF21 system); assay type: biochemical
T2 construct: made in house; host or cells: baculovirus / SF21 insect cells (gene synthesized by Entelechon GmbH)
T2 sequence (Q9Y233 other isoform, or with tags, fused parts or gaps): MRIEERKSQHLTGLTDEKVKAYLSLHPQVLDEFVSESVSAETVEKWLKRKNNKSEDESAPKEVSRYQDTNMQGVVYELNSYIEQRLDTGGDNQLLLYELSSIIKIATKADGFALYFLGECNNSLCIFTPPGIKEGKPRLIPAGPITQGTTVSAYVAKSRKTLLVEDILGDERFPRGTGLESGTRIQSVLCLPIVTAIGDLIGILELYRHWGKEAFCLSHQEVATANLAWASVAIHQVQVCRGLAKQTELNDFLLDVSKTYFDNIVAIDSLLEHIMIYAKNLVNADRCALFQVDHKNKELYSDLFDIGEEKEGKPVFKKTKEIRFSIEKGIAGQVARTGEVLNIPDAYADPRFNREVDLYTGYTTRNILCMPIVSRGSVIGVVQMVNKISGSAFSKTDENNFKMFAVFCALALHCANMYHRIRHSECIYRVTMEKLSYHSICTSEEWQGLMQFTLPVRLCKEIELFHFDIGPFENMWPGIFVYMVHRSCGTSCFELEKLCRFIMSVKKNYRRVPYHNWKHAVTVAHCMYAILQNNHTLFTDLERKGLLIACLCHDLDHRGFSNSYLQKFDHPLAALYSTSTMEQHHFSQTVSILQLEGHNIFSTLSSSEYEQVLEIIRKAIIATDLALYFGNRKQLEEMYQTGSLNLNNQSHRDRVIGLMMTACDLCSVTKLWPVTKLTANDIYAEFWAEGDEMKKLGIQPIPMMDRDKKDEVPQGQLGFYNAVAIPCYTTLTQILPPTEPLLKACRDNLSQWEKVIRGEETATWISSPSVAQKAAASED
Procedure: The DNA of PDE10A1 (AB 020593, 2340 bp) was synthesized and cloned into the vector pCR4.TOPO (Entelechon GmbH, Regensburg, Germany). The gene was than inserted into a baculovirus vector, ligated with the baculovirus DNA. The enzyme-protein was expressed in SF21-cells. The enzyme was isolated from these cells by harvesting the cells by an centrifugation at 500 g to collect the cells.
The cells were resuspended in 50 mM Tris-HCl/1 mM EDTA/250 mM Sucrose buffer, pH=7.4 (Sigma, Deisenhofen, Germany; Merck, Darmstadt, Germany) and lysed by sonification of the cells (three times for 15 seconds, Labsonic U, Fa. Braun, Degersheim, Switzerland, level “high”). The cytosolic PDE10A was obtained by a centrifugation at 48,000 g for 1 h in the supernatant and stored at −70° C.
PDE activity was determined in a one step procedure in microtiter plates. The reaction mixture of 100 μl contained 50 mM Tris-HCl/5 mM MgCl2 buffer (pH=7.4, Sigma, Deisenhofen, Germany; Merck, Darmstadt, Germany) 0.1 μM [3H]-cAMP (Amersham, Buckinghamshire, UK) and the enzyme. Non-specific enzyme activity was determined without the enzyme. The reaction was initiated by addition of the substrate solution and was carried out at 37° C. for 30 minutes. Enzymatic activity then was stopped by addition of 25 μl Ysi-SPA-beads (Amersham-Pharmacia). One h later the mixture was measured in a liquid scintillation counter for microtiter plates (Microbeta Trilux). The Biomek 2000 (Beckman) was used routinely for pipetting of the incubation mixture. The optimal amount of enzyme in the assay has been determined and optimized for each enzyme preparation separately before using the enzyme in compound testing. For determination of IC50 values the Hill-plot, 2-parameter-model, was used.

[1] = recombinant PDE2A, 0.5 μM [3H]-cAMP, 1000 nM cGMP, 37° C., 30 minutes, SPA, read-out: PDE2A IC50
[2] = recombinant cytosolic PDE10A, 0.1 μM [3H]-cAMP, 37° C., 30 minutes, SPA, read-out: PDE10A IC50

T1 sequence (O00408 whole entry): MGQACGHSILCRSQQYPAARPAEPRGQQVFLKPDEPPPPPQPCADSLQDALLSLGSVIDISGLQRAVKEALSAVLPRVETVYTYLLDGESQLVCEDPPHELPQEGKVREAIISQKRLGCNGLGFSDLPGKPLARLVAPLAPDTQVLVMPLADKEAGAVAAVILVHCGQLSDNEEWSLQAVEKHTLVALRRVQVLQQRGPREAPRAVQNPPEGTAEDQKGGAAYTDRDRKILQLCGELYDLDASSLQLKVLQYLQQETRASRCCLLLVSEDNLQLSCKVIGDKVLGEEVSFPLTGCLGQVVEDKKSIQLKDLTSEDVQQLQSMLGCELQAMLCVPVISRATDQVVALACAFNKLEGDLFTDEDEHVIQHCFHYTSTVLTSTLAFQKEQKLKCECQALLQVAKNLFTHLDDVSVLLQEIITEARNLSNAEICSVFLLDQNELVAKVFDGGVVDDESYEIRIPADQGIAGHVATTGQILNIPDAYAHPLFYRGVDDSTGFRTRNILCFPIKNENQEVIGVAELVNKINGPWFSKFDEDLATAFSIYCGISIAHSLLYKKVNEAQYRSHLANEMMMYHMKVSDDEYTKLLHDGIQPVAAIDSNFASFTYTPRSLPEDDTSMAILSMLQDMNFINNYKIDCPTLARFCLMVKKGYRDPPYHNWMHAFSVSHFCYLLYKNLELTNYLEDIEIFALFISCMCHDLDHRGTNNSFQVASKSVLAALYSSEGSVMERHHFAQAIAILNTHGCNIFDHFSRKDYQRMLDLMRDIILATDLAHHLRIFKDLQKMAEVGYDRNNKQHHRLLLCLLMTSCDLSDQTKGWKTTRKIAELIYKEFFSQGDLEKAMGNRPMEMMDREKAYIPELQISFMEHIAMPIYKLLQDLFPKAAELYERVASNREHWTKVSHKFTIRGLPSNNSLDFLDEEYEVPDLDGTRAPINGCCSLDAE

SMILES: COc1ccc2nnc3c(C)nc(-c4cscc4C)n3c2n1 [Example 77, 2-methoxy-7-methyl-9-(4-methylthiophen-3-yl)imidazo[5,1-c]pyrido[2,3-e][1,2,4]triazine]
- IC50 (PDE2A (NM002599); [1]): 51.2 nM
- IC50 (PDE10A1 (AB 020593); [2]): 43.6 nM

SMILES: COc1ccc2nnc3c(C)nc(-c4ccoc4)n3c2n1 [Example 78, 9-furan-3-yl-2-methoxy-7-methylimidazo[5,1-c]pyrido[2,3-e][1,2,4]triazine]
- IC50 (PDE2A (NM002599); [1]): 1390 nM
- IC50 (PDE10A1 (AB 020593); [2]): 482 nM

SMILES: COc1ccc2nnc3c(C)nc(-c4cnn(C)c4)n3c2n1 [Example 79, 2-methoxy-7-methyl-9-(1-methyl-1H-pyrazol-4-yl)imidazo[5,1-c]pyrido[2,3-e][1,2,4]triazine]
- IC50 (PDE2A (NM002599); [1]): 523 nM
- IC50 (PDE10A1 (AB 020593); [2]): 362 nM

SMILES: COc1ccc2nnc3c(C)nc(-c4cncnc4)n3c2n1 [Example 80, 2-methoxy-7-methyl-9-pyrimidin-5-ylimidazo[5,1-c]pyrido[2,3-e][1,2,4]triazine]
- IC50 (PDE2A (NM002599); [1]): 4070 nM
- IC50 (PDE10A1 (AB 020593); [2]): 5950 nM

SMILES: COc1ccc2nnc3c(C)nc(-c4ccc5[nH]ccc5c4)n3c2n1 [Example 81, 9-(1H-indol-5-yl)-2-methoxy-7-methylimidazo[5,1-c]pyrido[2,3-e][1,2,4]triazine]
- IC50 (PDE2A (NM002599)): 186 nM
- IC50 (PDE10A1 (AB 020593)): 62.6 nM

SMILES: COc1ccc2nnc3c(C)nc(-c4cc(F)cc(C(N)=O)c4)n3c2n1 [Example 82, 3-fluoro-5-(2-methoxy-7-methylimidazo[5,1-c]pyrido[2,3-e][1,2,4]triazin-9-yl)benzamide]
- IC50 (PDE2A (NM002599); [1]): 279 nM
- IC50 (PDE10A1 (AB 020593); [2]): 141 nM

SMILES: COc1ccc2nnc3c(C)nc(-c4ccc(Cl)c(C(N)=O)c4)n3c2n1 [Example 83, 2-chloro-5-(2-methoxy-7-methylimidazo[5,1-c]pyrido[2,3-e][1,2,4]triazin-9-yl)benzamide]
- IC50 (PDE2A (NM002599); [1]): 639 nM
- IC50 (PDE10A1 (AB 020593); [2]): 233 nM

SMILES: COc1ccc2nnc3c(C)nc(-c4ccc(C(N)=O)c(Cl)c4)n3c2n1 [Example 84, 2-chloro-4-(2-methoxy-7-methylimidazo[5,1-c]pyrido[2,3-e][1,2,4]triazin-9-yl)benzamide]
- IC50 (PDE2A (NM002599); [1]): 423 nM
- IC50 (PDE10A1 (AB 020593); [2]): 158 nM

SMILES: COc1ccc2nnc3c(C)nc(-c4cc(Cl)cc(Cl)c4Cl)n3c2n1 [Example 85, 2-methoxy-7-methyl-9-(2,3,5-trichlorophenyl)imidazo[5,1-c]pyrido[2,3-e][1,2,4]triazine]
- IC50 (PDE2A (NM002599); [1]): 34.5 nM
- IC50 (PDE10A1 (AB 020593); [2]): 145 nM

SMILES: COc1ccc2nnc3c(C)nc(-c4c(Cl)cccc4OC)n3c2n1 [Example 86, 9-(2-chloro-6-methoxyphenyl)-2-methoxy-7-methylimidazo[5,1-c]pyrido[2,3-e][1,2,4]triazine]
- IC50 (PDE2A (NM002599); [1]): 12 nM
- IC50 (PDE10A1 (AB 020593); [2]): 54.5 nM

SMILES: COc1ccc2nnc3c(C)nc(-c4cc(C#N)ccc4Cl)n3c2n1 [Example 87, 4-chloro-3-(2-methoxy-7-methylimidazo[5,1-c]pyrido[2,3-e][1,2,4]triazin-9-yl)benzonitrile]
- IC50 (PDE2A (NM002599); [1]): 29.8 nM
- IC50 (PDE10A1 (AB 020593); [2]): 420 nM

SMILES: COc1ccc2nnc3c(C)nc(-c4ccc(Cl)cc4Cl)n3c2n1 [Example 88, 9-(2,4-dichlorophenyl)-2-methoxy-7-methylimidazo[5,1-c]pyrido[2,3-e][1,2,4]triazine]
- IC50 (PDE2A (NM002599); [1]): 15.1 nM
- IC50 (PDE10A1 (AB 020593); [2]): 15 nM

SMILES: COc1ccc(-c2nc(C)c3nnc4ccc(OC)nc4n23)c(Cl)c1 [Example 89, 9-(2-chloro-4-methoxyphenyl)-2-methoxy-7-methylimidazo[5,1-c]pyrido[2,3-e][1,2,4]triazine]
- IC50 (PDE2A (NM002599); [1]): 52.6 nM
- IC50 (PDE10A1 (AB 020593); [2]): 62.8 nM

SMILES: COc1ccc2nnc3c(C)nc(-c4cccc(Cl)c4Cl)n3c2n1 [Example 90, 9-(2,3-dichlorophenyl)-2-methoxy-7-methylimidazo[5,1-c]pyrido[2,3-e][1,2,4]triazine]
- IC50 (PDE2A (NM002599); [1]): 49.3 nM
- IC50 (PDE10A1 (AB 020593); [2]): 41 nM
